Tests used:
hsSTING = hsSTING (Homo sapiens, UniProt Q86WV6); settings: covalent small-molecule inhibitor; cited from earlier work
mmSTING = biological target: T1, mmSTING (Mus musculus, UniProt Q3TBT3); settings: covalent small-molecule inhibitor; cited from earlier work
T1 sequence (Q3TBT3 1-378): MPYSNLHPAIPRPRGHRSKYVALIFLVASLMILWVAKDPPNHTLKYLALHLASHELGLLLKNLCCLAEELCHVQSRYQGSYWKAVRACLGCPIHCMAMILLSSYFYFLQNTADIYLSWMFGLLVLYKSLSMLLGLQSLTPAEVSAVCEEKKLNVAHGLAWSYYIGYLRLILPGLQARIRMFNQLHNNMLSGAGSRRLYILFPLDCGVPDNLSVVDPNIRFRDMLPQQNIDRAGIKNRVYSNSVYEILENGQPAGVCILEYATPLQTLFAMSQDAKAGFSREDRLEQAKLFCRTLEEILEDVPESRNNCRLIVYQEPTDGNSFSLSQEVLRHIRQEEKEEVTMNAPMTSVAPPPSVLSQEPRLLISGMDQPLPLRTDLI

IBA1 [1] = test: Immunocytochemistry of IBA1 in poly (I:C)-stimulated BV2 microglial cells, integrated density (ImageJ); type: cell-based; settings: pre-treated 2 h, then poly (I:C) 6 h, normalized to blank
Protocol: (§1) Experimental design: IMG or BV2 cells were plated in a 96-well or 6-well plate and allowed to adhere overnight. Plates were dosed with clonixeril for 2 hours and then LPS or polyinosinic-polycytidylic acid (polyIC) for 24 hours to induce inflammation. Ionized calcium-binding adaptor molecule 1 (IBA1) and pSTING expression were imaged and immunohistochemistry was measured (ImageJ).
Controls used are a blank (untreated); and 25 ng/ml poly (I:C) treatment for 6 h. Immunocytochemistry of BV2 cells pre-treated with a known STING inhibitor H151, clonixeril or a ketone analogue of clonixin (e.g., clonixin butyl ketone) for 2 h and then treated with poly (I:C) for 6 h, stained with IBA1 antibody (red) and DAPI (blue) to visualize nuclei. […] Separate channels were quantified by ImageJ for IBA1 (red) and DAPI (blue) pixel density. A ratio of red signal to blue signal was calculated for each image. Ratios were averaged for each experimental group and normalized to the blank (control) group.

CCL20 = test: qPCR for CCL20 in PolyIC-stimulated BV2 cells; type: cell-based; settings: dosed 2 hours, then PolyIC 24 hours
Protocol: (§2) Experimental design: BV2 cells were plated in a 6-well plate and allowed to adhere overnight. Plates were dosed with clonixin butyl ketone or H151 for 2 hours and then PolyIC for 24 hours to induce inflammation. qPCR was performed to measure expression of CCL20 and IL-6 inflammatory genes and immunomodulatory Irf-3 gene.

IL-6 = test: qPCR for IL-6 in PolyIC-stimulated BV2 cells; type: cell-based; settings: dosed 2 hours, then PolyIC 24 hours
Protocol: as §2

Irf-3 = test: qPCR for Irf-3 in PolyIC-stimulated BV2 cells; type: cell-based; settings: dosed 2 hours, then PolyIC 24 hours
Protocol: as §2

pSTING [2] = test: Immunocytochemistry of pSTING in poly (I:C)-stimulated HT22 hippocampal cells, integrated density (ImageJ); type: cell-based, mouse; settings: pre-treated 2 h, then poly (I:C) 6 h, normalized to blank
Protocol: Cells were untreated, or pre-treated with vehicle or STING-inhibitory compounds H151, a ketone analog of clonixin (e.g., clonixin butyl ketone), clonixeril (CXL) for 2 h and then treated with poly (I:C) for 6 h. Cells were then stained with DAPI (blue, top row) to visualize nuclei and pSTING antibody (red, bottom 5 row). Images are presented separately for enhanced clarity. Scale bar 100 μm.
Error bars represent mean ±standard deviation (SD). Separate channels were quantified by ImageJ for pSTING (red) and DAPI (blue) pixel density. A ratio of red signal to blue signal was calculated for each image. Ratios were averaged for each experimental group and normalized to the blank (control) group.

[3] = tested on: phosphorylated STING (pSTING); test: Western blot for pSTING in poly (I:C)-stimulated HT22 hippocampal cells; type: cell-based, mouse; settings: 100 pM pre-treatment 2 h, then poly (I:C) 6 h
Protocol: Immunoblot analysis of phosphorylated STING (pSTING) and β-actin in HT22 mouse hippocampal cells. Cells were pre-treated with 100 pM ketone analog of clonixin (e.g., clonixin butyl ketone) for 2 h, followed by 6 h stimulation with poly (I:C). Cell lysates were harvested at indicated time points using RIPA buffer supplemented with 1× Halt Protease and Phosphatase Inhibitor Cocktail, quantified via Bradford assay, and normalized to 20 μg protein per well. Lysates were resolved by SDS-PAGE and probed with rabbit polyclonal anti-pSTING and anti-β-actin antibodies.

IBA1 [4] = test: Immunocytochemistry of IBA1 in LPS-stimulated IMG cells, integrated density (ImageJ); type: cell-based; settings: pre-treated 2 h, then LPS 24 h, normalized to blank
Protocol: as §1
(§3) Cells were untreated, or pre-treated with vehicle or STING-inhibitory compound clonixeril for 2 h and then treated with LPS for 24 h. Cells were then stained with DAPI (blue) to visualize nuclei, IBA1 or pSTING antibody (red). Images are presented separately for enhanced clarity. […] Error bars represent mean ±standard deviation (SD). Separate channels were quantified by ImageJ for IBA1 or pSTING (red) and DAPI (blue) pixel density. A ratio of red signal to blue signal was calculated for each image. Ratios were averaged for each experimental group and normalized to the blank (control) group.

pSTING [5] = test: Immunocytochemistry of pSTING in LPS-stimulated IMG cells, integrated density (ImageJ); type: cell-based; settings: pre-treated 2 h, then LPS 24 h, normalized to blank
Protocol: as §1, §3

Chain of hsSTING (Q86WV6 whole entry H232R): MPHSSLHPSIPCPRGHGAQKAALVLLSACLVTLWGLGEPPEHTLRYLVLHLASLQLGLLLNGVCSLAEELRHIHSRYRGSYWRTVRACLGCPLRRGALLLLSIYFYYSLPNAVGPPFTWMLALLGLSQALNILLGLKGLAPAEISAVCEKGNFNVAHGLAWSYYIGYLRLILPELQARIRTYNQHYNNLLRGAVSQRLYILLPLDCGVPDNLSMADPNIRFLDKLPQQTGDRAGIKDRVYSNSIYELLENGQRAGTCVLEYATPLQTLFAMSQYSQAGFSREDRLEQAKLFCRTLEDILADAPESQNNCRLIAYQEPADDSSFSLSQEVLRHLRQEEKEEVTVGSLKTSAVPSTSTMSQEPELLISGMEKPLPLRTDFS

Compound	inhibition of hsSTING (hsSTING)	inhibition of mmSTING (mmSTING)	IBA1 integrated density (IBA1 [1])	CCL20 expression at 1 picomolar concentration (CCL20)	expression of CCL20 (qPCR) (CCL20)	expression of IL-6 (qPCR) (IL-6)	expression of interferon regulatory gene Irf3 (qPCR) (Irf-3)	pSTING (immunocytochemistry, integrated density) (pSTING [2])	IL-6 expression at 1 picomolar concentration (IL-6; 1 picomolar)	poly (I:C)-induced STING phosphorylation (Western blot, normalized to β-actin) [3]	IBA1 integrated density (IBA1 [4])	pSTING integrated density (pSTING [5])
CCCCCCc1ccc(NC(=O)c2ccc([N+](=O)[O-])o2)cc1 [C-171, N-(4-hexylphenyl)-5-nitro-2-furancarboxamide]	efficiently inhibits	efficiently inhibits										
CCc1ccc(NC(=O)Nc2c[nH]c3ccccc23)cc1 [H151]			reduction	but not H151 showed a significant reduction	significantly decreased	significantly decreased	reduced significantly	reduction				
CCCCC(=O)c1cccnc1Nc1cccc(Cl)c1C [clonixin butyl ketone, {2-[(3-chloro-2-methylphenyl)amino]pyridin-3-yl}-1-pentanone]			reduction	significant reduction	significantly decreased	significantly decreased	reduced significantly	reduction	significant reduction	inhibition		
clonixeril			reduction					reduction			reduction	reduction

From patent US20250352525A1, “COMPOSITIONS AND METHODS OF TREATING TRAUMATIC BRAIN INJURY” (United States Government As Represented By The Department …, priority 2024, published 2025)
